Results published in patent US9067945B2, “Selective phosphodiesterase 9A inhibitors as medicaments for improving cognitive processes” (Boehringer Ingehleim International GmbH, priority 2002, dated 2015).
“Also recorded” adds a separate entry of the source. Values belong to the compound of their own block, whether it stands above or below them.

Columns and labels:
PDE2A = PDE2A (Homo sapiens (Human), UniProt O00408); experiment: PDE inhibition, recombinant PDE2A (SPA); assay type: biochemical; details: Isoenzyme PDE2A
Chain of PDE2A (O00408 whole entry): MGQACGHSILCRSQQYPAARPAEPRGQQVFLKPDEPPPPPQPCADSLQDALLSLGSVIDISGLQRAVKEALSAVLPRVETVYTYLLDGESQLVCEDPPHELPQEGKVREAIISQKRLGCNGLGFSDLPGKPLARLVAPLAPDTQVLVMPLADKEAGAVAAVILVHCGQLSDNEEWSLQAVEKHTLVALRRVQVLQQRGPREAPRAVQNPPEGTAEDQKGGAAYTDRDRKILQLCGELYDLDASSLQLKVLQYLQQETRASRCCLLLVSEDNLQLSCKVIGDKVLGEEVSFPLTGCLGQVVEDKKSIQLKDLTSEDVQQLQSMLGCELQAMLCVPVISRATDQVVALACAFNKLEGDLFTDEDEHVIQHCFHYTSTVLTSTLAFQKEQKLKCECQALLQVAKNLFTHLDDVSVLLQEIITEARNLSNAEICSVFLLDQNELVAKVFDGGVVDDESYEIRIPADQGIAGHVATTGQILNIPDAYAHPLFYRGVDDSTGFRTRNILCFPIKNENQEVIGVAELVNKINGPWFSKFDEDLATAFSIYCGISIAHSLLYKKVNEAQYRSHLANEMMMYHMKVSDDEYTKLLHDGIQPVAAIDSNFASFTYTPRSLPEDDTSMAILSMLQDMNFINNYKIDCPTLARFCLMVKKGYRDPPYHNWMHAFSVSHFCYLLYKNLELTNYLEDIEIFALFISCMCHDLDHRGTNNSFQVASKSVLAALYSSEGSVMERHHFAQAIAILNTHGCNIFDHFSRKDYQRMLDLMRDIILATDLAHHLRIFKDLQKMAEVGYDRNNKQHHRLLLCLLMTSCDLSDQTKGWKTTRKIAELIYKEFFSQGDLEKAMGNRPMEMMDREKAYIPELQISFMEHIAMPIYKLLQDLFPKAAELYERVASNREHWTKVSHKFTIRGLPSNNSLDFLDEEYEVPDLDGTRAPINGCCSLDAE
Excerpt: (§1) Recombinant PDE1C (GenBank/EMBL Accession Number: NM_005020, Loughney et al. J. Biol. Chem. 1996 271, 796-806), PDE2A (GenBank/EMBL Accession Number: NM_002599, Rosman et al. Gene 1997 191, 89-95), PDE3B (GenBank/EMBL Accession Number: NM_000922, Miki et al. Genomics 1996, 36, 476-485), PDE4B (GenBank/EMBL Accession Number: NM_002600, Obernolte et al. Gene. 1993, 129, 239-247), PDE5A (GenBank/EMBL Accession Number: NM_001083, Loughney et al. Gene 1998, 216, 139-147), PDE7B (GenBank/EMBL Accession Number: NM_018945, Hetman et al. Proc. Natl. Acad. Sci. U.S.A. 2000, 97, 472-476), PDE8A (GenBank/EMBL Accession Number: AF—056490, Fisher et al. Biochem. Biophys. Res. Commun. […]
(§2) The test substances are dissolved in 100% DMSO and serially diluted to determine their in vitro effect on PDE 9A. […] The plates are then measured for 30 s per well in a Microbeta scintillation counter (Wallac Inc., Atlanta, Ga.). IC50 values are determined from the graphical plot of the substance concentration versus the percentage inhibition.
(§3) The in vitro effect of test substances on recombinant PDE3B, PDE4B, PDE7B, PDE8A, PDE10A and PDE11A is determined in accordance with the assay protocol described above for PDE9A with the following adaptations: [5′,8-^3H] adenosine 3′,5′-cyclic phosphate (1 μCi/μL; Amersham Pharmacia Biotech., Piscataway, N.J.) is used as substrate. […]

PDE3B = PDE3B (Homo sapiens (Human), UniProt Q13370); experiment: PDE inhibition, recombinant PDE3B (SPA); assay type: biochemical; details: Isoenzyme PDE3B
Chain of PDE3B (Q13370 whole entry): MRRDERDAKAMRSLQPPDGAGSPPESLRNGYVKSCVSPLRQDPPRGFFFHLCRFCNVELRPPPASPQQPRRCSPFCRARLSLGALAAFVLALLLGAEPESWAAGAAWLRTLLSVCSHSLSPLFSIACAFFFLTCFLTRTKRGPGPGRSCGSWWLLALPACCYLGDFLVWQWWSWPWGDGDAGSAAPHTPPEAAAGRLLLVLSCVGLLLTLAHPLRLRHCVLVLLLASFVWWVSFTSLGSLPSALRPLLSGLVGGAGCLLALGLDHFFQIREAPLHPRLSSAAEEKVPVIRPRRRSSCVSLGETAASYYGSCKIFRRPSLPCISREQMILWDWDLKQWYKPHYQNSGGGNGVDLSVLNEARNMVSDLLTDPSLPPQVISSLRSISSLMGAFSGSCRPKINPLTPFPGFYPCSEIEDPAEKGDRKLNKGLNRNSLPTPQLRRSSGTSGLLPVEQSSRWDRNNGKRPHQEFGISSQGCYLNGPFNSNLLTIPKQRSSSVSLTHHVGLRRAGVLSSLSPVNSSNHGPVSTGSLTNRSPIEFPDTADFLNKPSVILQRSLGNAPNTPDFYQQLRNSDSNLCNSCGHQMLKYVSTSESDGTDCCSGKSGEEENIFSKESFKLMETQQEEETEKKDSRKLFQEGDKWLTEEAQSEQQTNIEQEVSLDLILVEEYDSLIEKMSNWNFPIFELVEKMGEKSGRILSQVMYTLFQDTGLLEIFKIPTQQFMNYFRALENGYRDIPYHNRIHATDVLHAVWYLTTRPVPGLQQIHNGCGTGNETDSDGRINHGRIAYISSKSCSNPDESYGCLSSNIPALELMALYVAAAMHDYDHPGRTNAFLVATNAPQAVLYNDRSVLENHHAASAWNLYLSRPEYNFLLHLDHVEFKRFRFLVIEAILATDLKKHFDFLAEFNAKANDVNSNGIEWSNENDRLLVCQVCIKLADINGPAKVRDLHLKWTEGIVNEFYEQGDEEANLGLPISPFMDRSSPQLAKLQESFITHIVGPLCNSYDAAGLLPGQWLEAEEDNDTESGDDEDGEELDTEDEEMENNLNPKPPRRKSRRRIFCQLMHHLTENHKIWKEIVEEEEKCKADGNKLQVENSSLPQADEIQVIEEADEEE
Excerpt: as §1, §2, §3

PDE4B = PDE4B (Homo sapiens (Human), UniProt Q07343); experiment: PDE inhibition, recombinant PDE4B (SPA); assay type: biochemical; details: Isoenzyme PDE4B
Chain of PDE4B (Q07343 other isoform, or with tags, fused parts or gaps isoform Q07343-2): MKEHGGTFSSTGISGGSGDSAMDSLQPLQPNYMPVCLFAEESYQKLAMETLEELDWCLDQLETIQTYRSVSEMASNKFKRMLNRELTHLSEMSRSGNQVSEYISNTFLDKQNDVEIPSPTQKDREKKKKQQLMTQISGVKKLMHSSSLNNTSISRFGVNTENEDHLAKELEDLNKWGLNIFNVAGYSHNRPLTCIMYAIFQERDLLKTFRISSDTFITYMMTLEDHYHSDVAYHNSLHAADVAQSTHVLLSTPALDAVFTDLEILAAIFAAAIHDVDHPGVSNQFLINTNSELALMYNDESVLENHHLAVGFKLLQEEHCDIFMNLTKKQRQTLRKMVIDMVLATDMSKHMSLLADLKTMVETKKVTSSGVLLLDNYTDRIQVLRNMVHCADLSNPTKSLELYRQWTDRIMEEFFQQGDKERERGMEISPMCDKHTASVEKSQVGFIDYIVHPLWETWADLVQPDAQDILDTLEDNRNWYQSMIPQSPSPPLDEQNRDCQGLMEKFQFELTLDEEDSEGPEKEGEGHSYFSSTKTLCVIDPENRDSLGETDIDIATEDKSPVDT

PDE5A = PDE5A (Homo sapiens (Human), UniProt O76074); experiment: PDE inhibition, recombinant PDE5A (SPA); assay type: biochemical; details: Isoenzyme PDE5A
Excerpt: as §1, §2, §3

PDE7B = PDE7B (Homo sapiens (Human), UniProt Q9NP56); experiment: PDE inhibition, recombinant PDE7B (SPA); assay type: biochemical; details: Isoenzyme PDE7B
Excerpt: as §1, §2, §3

PDE8A = PDE8A (Homo sapiens, UniProt O60658); experiment: PDE inhibition, recombinant PDE8A (SPA); assay type: biochemical; details: Isoenzyme PDE8A
Chain of PDE8A (O60658 whole entry, looked up): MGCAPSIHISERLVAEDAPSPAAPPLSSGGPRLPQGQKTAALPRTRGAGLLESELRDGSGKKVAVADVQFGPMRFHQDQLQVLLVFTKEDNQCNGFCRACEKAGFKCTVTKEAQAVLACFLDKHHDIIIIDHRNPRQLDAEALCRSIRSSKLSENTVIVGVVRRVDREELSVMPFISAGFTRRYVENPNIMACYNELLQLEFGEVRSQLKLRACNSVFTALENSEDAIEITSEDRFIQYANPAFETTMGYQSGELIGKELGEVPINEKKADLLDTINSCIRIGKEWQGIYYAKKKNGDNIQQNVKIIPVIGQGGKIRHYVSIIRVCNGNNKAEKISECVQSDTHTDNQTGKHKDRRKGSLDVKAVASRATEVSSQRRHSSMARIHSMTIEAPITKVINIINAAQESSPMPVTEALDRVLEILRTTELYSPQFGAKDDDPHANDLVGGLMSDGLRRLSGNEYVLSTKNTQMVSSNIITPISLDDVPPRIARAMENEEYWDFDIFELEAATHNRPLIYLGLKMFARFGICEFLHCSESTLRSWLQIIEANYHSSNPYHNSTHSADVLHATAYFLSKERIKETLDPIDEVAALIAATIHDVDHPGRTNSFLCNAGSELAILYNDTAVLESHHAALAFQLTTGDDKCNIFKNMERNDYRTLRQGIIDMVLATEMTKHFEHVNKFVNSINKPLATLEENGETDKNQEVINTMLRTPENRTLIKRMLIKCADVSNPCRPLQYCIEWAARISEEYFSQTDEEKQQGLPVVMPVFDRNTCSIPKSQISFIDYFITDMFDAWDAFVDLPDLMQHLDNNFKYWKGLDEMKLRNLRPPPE

PDE10A = PDE10A (Homo sapiens (Human), UniProt Q9Y233); experiment: PDE inhibition, recombinant PDE10A (SPA); assay type: biochemical; details: Isoenzyme PDE10A
Chain of PDE10A (Q9Y233 other isoform, or with tags, fused parts or gaps): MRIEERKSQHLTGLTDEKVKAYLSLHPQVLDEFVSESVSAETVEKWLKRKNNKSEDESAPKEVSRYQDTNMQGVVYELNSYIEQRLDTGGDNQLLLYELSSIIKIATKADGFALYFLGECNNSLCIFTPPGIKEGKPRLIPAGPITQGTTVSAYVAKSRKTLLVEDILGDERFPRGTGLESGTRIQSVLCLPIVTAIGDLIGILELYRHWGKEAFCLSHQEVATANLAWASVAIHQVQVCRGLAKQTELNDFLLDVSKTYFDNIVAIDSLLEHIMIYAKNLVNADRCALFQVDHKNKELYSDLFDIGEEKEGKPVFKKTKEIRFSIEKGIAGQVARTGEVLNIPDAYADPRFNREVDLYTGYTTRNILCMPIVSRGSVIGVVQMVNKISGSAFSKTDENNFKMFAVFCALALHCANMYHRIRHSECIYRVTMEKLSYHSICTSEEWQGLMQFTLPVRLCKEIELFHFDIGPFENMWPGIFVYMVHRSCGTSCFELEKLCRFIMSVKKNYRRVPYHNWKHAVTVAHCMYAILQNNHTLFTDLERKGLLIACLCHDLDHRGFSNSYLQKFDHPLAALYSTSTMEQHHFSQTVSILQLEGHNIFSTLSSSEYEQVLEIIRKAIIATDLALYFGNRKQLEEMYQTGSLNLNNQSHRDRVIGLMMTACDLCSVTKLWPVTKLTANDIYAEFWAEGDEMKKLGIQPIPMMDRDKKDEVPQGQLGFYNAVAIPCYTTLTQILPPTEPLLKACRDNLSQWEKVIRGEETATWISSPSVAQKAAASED
Excerpt: as §1, §2, §3

PDE11 = PDE11 (Homo sapiens (Human), UniProt Q9HCR9); experiment: PDE inhibition, recombinant PDE11A (SPA); assay type: biochemical; details: Isoenzyme PDE11, human
Excerpt: as §1, §2, §3

[1] = system: primary rat (E18) cortex cultures, intracellular cGMP; experiment: Increasing the intracellular neuronal cGMP concentration in cell cultures; assay type: cell-based; details: primary rat cortical neurons, incubation 20 min, FIG. 1
Method: Rat embryos (embryonic day E17-E19) were decapitated, and the heads were transferred into dissection dishes filled with dissection medium (DMEM, penicillin/streptomycin; both from Gibco). The scalp and the roof of the skull were removed, and the exposed brains were transferred into another Petri dish with dissection medium. Using a binocular microscope and two forceps, the cerebrum (cortex) was isolated and cooled to 4° C. with ice. This dissection and the isolation of the cortical neurons were then carried out in accordance with a standard protocol using the Papain kit (Worthington Biochemical Corporation, Lakewood, N.J. 08701, USA) (Huettner et al. J. Neurosci. 1986, 6, 3044-3060). The mechanically isolated cortical neurons were cultivated at 150,000 cells/well in 200 μl of neurobasal medium/well (neurobasal; B27 supplement; 2 mM L-glutamine; in the presence of penicillin/streptomycin; all agents from Gibco) in 96-well plates (pretreated with poly-D-lysine/100 μg/ml for 30 min) under standard conditions (37° C., 5% CO2) for 7 days. After 7 days, the medium was removed and the cells were washed with HBSS buffer (Hank's balanced salt solution, Gibco/BRL). […] Subsequently, the cells were lyzed in 200 μl of lysis buffer (cGMP kit code RPN 226; from Amersham Pharmacia Biotech.), and the cGMP concentration was measured as stated by the manufacturer. […]

[2] = system: rat hippocampus slices, fEPSP after weak tetanus; experiment: Long-term potentiation in hippocampus slices; details: 10 μM, flushed in 10 minutes before to 30 minutes after weak tetanus, vs 0.01% DMSO control, FIG. 2
[3] = system: rats, learning and memory; experiment: Social recognition test; assay type: in vivo, rat; details: intraperitoneal 0.1-3.0 mg/kg directly after trial 1, retention time 24 hours, FIG. 3
Method: Adult rats housed in groups were placed singly in test cages 30 min before the start of the test. Four minutes before the start of the test, the test animal was put in an observation box. After this adaptation time, a juvenile animal was put in with the test animal and the absolute time for which the adult animal inspected the young one was measured for 2 min (trial 1). All behaviors clearly directed at the young animal were measured, i.e. anogenital inspection, pursuit and grooming, during which the old animal was no further than 1 cm from the young animal. The juvenile was then removed, and the adult was treated with Example 2 or vehicle and subsequently returned to its own cage. The test was repeated after a retention time of 24 hours (trial 2). A diminished social interaction time compared with trial 1 would indicate that the adult rat remembers the young animal.
The adult animals received intraperitoneal injections directly following trial 1 either with vehicle (10% ethanol, 20% Solutol, 70% physiological saline) or 0.1 mg/kg, 0.3 mg/kg, 1.0 mg/kg or 3.0 mg/kg of Example 2 dissolved in 10% ethanol, 20% Solutol, 70% physiological saline. […] They had consequently forgotten that they had already had contact with the young animal.

Human PDE9A = Human PDE9A (Homo sapiens (Human), UniProt O76083); details: concentrations of up to 100 μM; cited from earlier work
Chain of Human PDE9A (O76083 whole entry): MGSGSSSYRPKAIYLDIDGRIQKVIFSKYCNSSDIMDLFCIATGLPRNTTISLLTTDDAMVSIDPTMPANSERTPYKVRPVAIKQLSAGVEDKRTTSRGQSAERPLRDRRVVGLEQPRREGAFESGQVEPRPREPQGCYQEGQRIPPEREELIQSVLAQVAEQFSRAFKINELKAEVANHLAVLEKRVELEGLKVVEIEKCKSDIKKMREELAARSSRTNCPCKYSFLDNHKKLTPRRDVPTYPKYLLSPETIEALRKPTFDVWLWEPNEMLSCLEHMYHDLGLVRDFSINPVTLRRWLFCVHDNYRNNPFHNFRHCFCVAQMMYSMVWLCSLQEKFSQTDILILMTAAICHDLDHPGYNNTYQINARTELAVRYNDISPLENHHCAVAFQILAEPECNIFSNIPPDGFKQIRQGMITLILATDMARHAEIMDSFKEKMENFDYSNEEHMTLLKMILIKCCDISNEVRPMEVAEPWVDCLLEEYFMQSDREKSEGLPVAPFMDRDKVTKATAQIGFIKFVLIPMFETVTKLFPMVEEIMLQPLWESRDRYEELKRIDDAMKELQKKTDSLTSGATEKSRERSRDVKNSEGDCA

Murine PDE9A = Murine PDE9A (Mus musculus (Mouse), UniProt O70628); details: concentrations below 200 μM; cited from earlier work

- melting point: 147 °C
SMILES: O=c1[nH]c(CC2CCCCC2)nc2c1cnn2C1CCCC1

- IC50 (PDE2A): > 4 µM
- IC50 (PDE3B): > 4 µM
- IC50 (PDE4B): > 4 µM
- IC50 (PDE5A): > 4 µM
- IC50 (PDE7B): > 4 µM
- IC50 (PDE8A): > 4 µM
- IC50 (PDE10A): > 4 µM
- IC50 (PDE11): > 4 µM
- melting point: 122 °C
SMILES: CCC(CC)n1ncc2c(=O)[nH]c(CC3CCCCC3)nc21 [Example 2, 6-(Cyclohexylmethyl)-1-(1-ethylpropyl)-1,5-dihydro-4H-pyrazolo[3,4-d]-pyrimidin-4-one]
- cGMP content of primary neurons [1]: increase in the cGMP content
- LTP / potentiation of fEPSP after weak tetanus [2]: significant increase in the LTP; also recorded: significantly augmented the increase in the fEPSP
- social interaction time in trial 2 compared with vehicle [3]: significantly reduced

SMILES: CC(C)Cn1c(=O)n(C)c(=O)c2[nH]cnc21 [IBMX]
- inhibition on the isolated enzyme (Human PDE9A): no inhibition
- inhibition of murine PDE9A (Murine PDE9A): not inhibited

SMILES: CC(=O)Nc1ccc(-c2c[nH]c(=O)cn2)cc1 [SKF94120]
- inhibition on the isolated enzyme (Human PDE9A): no inhibition

SMILES: OCCN(CCO)c1nc(N2CCCCC2)c2nc(N(CCO)CCO)nc(N3CCCCC3)c2n1 [dipyridamole]
- inhibition on the isolated enzyme (Human PDE9A): no inhibition

SMILES: COc1ccc(C2CNC(=O)C2)cc1OC1CCCC1 (stereo not shown) [rolipram]
- inhibition on the isolated enzyme (Human PDE9A): no inhibition

SMILES: CCOC(=O)C1=C[C@]2(CC)CCCN3CCc4c(n1c1ccccc41)[C@@H]32 [vinpocetine]
- inhibition on the isolated enzyme (Human PDE9A): no inhibition
